From paper PMC6052120, “Bioactive Phenolics of the Genus Artemisia (Asteraceae): HPLC-DAD-ESI-TQ-MS/MS Profile of the Siberian Species and Their Inhibitory Potential Against α-Amylase and α-Glucosidase” (Frontiers in Pharmacology, 2018)

Tests used:
[1] = biological target: T1, α-Glucosidase from Saccharomyces cerevisiae (Saccharomyces cerevisiae, UniProt P53341); assay: α-glucosidase inhibition assay, spectrophotometric method; type: biochemical; details: pure caffeoylquinic acids (CQA); acarbose reference; read-out: Inhibitory activity against enzyme as IC50 α-Glucosidase
T1 construct: purchased Sigma-Aldrich (St. Louis, MO, USA) G5003
Description: The α-glucosidase inhibition assay was performed using spectrophotometric method (Olennikov et al., [2017b]). α-Glucosidase from Saccharomyces cerevisiae was dissolved in phosphate buffer (pH 6.8) containing bovine serum albumin (2 mg/mL) up to 0.5 U/mL concentration. Solution (10 μL) of sample in DMSO–phosphate buffer, pH 6.8 (1:9) at varying concentrations (10, 100, 250, 500, and 1,000 μg/mL) was premixed with 490 μL of phosphate buffer (pH 6.8) and 250 μL 5 mM p-nitrophenyl α-D-glucopyranoside. After preincubating at for 5 min, 250 μL α-glucosidase (0.5 U/mL) was added and incubated at for 15 min. The reaction was terminated by the addition of 2,000 μL Na2CO3 (200 mM). Absorbance was measured at 400 nm. […] The ability to inhibit α-glucosidase was calculated using the following equation: […]
(§1) Values are expressed as mean obtained from five independent experiments.

[2] = biological target: T2, α-amylase from Aspergillus oryzae (Aspergillus oryzae, UniProt P0C1B3); type: biochemical; details: pure caffeoylquinic acids (CQA); acarbose reference; read-out: Inhibitory activity against enzyme as IC50 α-Amylase
T2 construct: purchased Sigma-Aldrich (St. Louis, MO, USA) 10065
Description: α-Amylase inhibitory activity was assayed according to a previously published spectrophotometric protocol (Olennikov and Kashchenko, [2014]). Sample solution in DMSO (10 μL) at varying concentrations (10, 100, 250, 500, and 1,000 μg/mL), 30 μL of phosphate buffer (pH 5.0) and 10 μL of α-amylase from Aspergillus oryzae (3 U/mL) were incubated for 20 min at . Then 10 μL of 2% starch solution, 40 μL of phosphate buffer (pH 5.0) and 100 μL of the reagent were added and incubated for 30 min at . The reagent was a solution of K2HPO4 (0.8 mM), KH2PO4 (0.4 mM), phenol (220 mM), 4-aminoantipyrine (1.5 μM), glucose oxidase from Aspergillus oryzae (3 U/mL), and peroxidase from horseradish (0.3 U/mL) in deionized water. Absorbance was measured at 510 nm. […] The ability to inhibit α-amylase was calculated using the following equation: […]
as §1

T1 sequence (P53341 whole entry): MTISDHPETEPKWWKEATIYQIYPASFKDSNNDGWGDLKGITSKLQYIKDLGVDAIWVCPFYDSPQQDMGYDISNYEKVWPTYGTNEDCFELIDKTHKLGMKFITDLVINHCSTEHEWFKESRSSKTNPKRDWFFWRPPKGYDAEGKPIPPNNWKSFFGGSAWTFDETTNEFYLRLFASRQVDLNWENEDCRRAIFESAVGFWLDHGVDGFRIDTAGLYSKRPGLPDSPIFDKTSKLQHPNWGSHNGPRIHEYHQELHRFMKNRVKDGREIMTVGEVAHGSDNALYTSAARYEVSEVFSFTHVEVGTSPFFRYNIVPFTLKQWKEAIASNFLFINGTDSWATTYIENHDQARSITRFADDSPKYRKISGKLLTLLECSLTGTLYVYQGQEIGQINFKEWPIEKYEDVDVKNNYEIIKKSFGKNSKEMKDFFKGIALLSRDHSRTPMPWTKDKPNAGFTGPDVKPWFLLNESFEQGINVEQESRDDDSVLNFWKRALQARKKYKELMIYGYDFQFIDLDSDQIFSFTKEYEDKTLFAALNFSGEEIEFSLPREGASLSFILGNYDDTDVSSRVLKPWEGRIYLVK

Compound | IC50 [1] | IC50 [2]
O=C(/C=C/c1ccc(O)c(O)c1)OC1CC(OC(=O)/C=C/c2ccc(O)c(O)c2)(C(=O)O)CC(O)C1O (stereo not drawn) [1,3-Di-O-CQA, 1,3-Di-O-caffeoylquinic acid] | 984 ± 28.5 µM | 101 ± 2.81 µM
O=C(C=Cc1ccc(O)c(O)c1)OC1CC(OC(=O)C=Cc2ccc(O)c(O)c2)(C(=O)O)CC(O)C1O (stereo not drawn) [1,5-Di-O-CQA, 1,5-Di-O-caffeoylquinic acid] | 754 ± 23.4 µM | 77.4 ± 2.24 µM
O=C(/C=C/c1ccc(O)c(O)c1)OC1[C@H](OC(=O)/C=C/c2ccc(O)c(O)c2)CC(O)(C(=O)O)C[C@H]1OC(=O)/C=C/c1ccc(O)c(O)c1 (stereo partly drawn) [3,4,5-Tri-O-CQA] | 61.1 ± 1.77 µM | 40.6 ± 1.05 µM
O=C(/C=C/c1ccc(O)c(O)c1)OC1CC(O)(C(=O)O)CC(O)C1OC(=O)/C=C/c1ccc(O)c(O)c1 (stereo not drawn) [3,4-Di-O-CQA, 3,4-Di-O-caffeoylquinic acid] | 210 ± 6.5 µM | 67.2 ± 2.01 µM
O=C(/C=C/c1ccc(O)c(O)c1)OC1CC(O)(C(=O)O)CC(OC(=O)/C=C/c2ccc(O)c(O)c2)C1O (stereo not drawn) [3,5-Di-O-CQA, 3,5-Di-O-caffeoylquinic acid] | 184 ± 5.34 µM | 51.3 ± 1.64 µM
O=C(/C=C/c1ccc(O)c(O)c1)O[C@@H]1[C@H](O)C[C@@](O)(C(=O)O)C[C@H]1OC(=O)/C=C/c1ccc(O)c(O)c1 [4,5-Di-O-CQA, 4,5-Di-O-caffeoylquinic acid] | 62.1 ± 1.49 µM | 42.3 ± 1.18 µM
O=C(/C=C/c1ccc(O)c(O)c1)OC1(C(=O)O)C[C@@H](O)C(O)[C@H](O)C1 (stereo partly drawn) [Compound 1-O-CQA] | 1240 ± 42.1 µM | 172 ± 5.34 µM
O=C(/C=C/c1ccc(O)c(O)c1)O[C@@H]1C[C@](O)(C(=O)O)C[C@@H](O)[C@H]1O [Compound 3-O-CQA, 3-O-caffeoylquinic acid] |  | 170 ± 4.41 µM
O=C(/C=C/c1ccc(O)c(O)c1)O[C@H]1[C@H](O)C[C@](O)(C(=O)O)C[C@H]1O [Compound 4-O-CQA, 4-O-Caffeoylquinic acid] | 1030 ± 40 µM | 110 ± 3.39 µM
O=C(/C=C/c1ccc(O)c(O)c1)O[C@@H]1C[C@](O)(C(=O)O)C[C@@H](O)[C@H]1O [Compound 5-O-CQA, 5-O-Caffeoylquinic acid] |  | 84.9 ± 2.37 µM
